Test results as given in patent US20250009753A1, “METHODS FOR TREATING IMMUNE REFRACTORY LUNG CANCER” (Revolution Medicines, Inc., priority 2022, published 2025).

Test system: eLL2 KRASWT/G12C NRAS−/− A2 tumors
Test: Immune cell infiltration in tumors by flow cytometry
Format: in vivo, mouse
Conditions: 24 hours post 4 days of treatment, Compound A 200 mg/kg po qd, RMC-4550 30 mg/kg po qd, anti-PD-1 10 mg/kg ip qw
Protocol: Methods: Effects of Compound A (Ex. A556 of Table 1). dosed at 200 mg/kg po qd, RMC-4550 dosed at 30 mg/kg po qd, anti-PD-1 dosed at 10 mg/kg ip qw and the combination therapies on the immune cell infiltration in the eLL2 KRASWT/G12C NRAS−/− A2 tumors have been evaluated 24 hours post 4 days of treatment in 3 mice/group by flow cytometry. Tumor tissue was minced, processed with the Miltenyi Biotec Mouse Tumor Dissociation Kit or the Dri Tumor & Tissue Dissociation Reagent from BD Biosciences, and homogenized with the gentleMACS™ Dissociator. The cell suspension was incubated at 4° C. for 30 minutes with Mouse BD Fc Block (Clone 2.4G2 from BD Pharmingen), 10 minutes with Blue Dead Cell Stain Kit (from Invitrogen) and 30 min in cell staining buffer. Antibodies used targeted CD45 (Clone 30-F11 from BD Biosciences), CD19 (Clone 1D3 from BD Biosciences, CD3E (Clone145-2C11 from Biolegend), CD8b (Clone H35-17.2 from BD Biosciences), CD4 (Clone GK1.5 from Biolegend), CD11b (Clone M1/70 from Biolegend), F4/80 (Clone BM8 from Biolegend), Ly-6G (Clone 1A8 from BD Biosciences) and Ly-6C (Clone HK1.4 from Biolegend).

Q: `Cc1nc(N2CCC3(CC2)CO[C@@H](C)[C@H]3N)c(CO)nc1-c1cccc(Cl)c1Cl` [RMC-4550] was tested. Which “Ly6G+ myeloid suppressor cells” value did it give?
A: significantly decreased
